Reference: patent US7351407B2, “Agents which regulate, inhibit, or modulate the activity and/or expression of connective tissue growth factor (CTGF) as a unique means to both lower intraocular pressure and treat glaucomatous retinopathies/optic neuropathies” (Alcon, Inc., priority 2002, dated 2008)

Experiments:
CTGF gene expression = test: CTGF QPCR assay for inhibition of basal and TGFβ2-induced CTGF gene expression in cultured human TM cells; assay type: cell-based; conditions: for inhibition of basal CTGF gene expression (mRNA levels) / inhibition of TGFβ2-induced CTGF gene expression (mRNA levels): cultured human normal or glaucomatous TM cells, QPCR; for inhibition of TGFβ2-induced CTGF gene expression (mRNA levels): TGFβ2-stimulated; for inhibitory activity on CTGF expression: human TM cells, basal or TGFβ2-induced not specified
Description: FIG. 3. Effect of GSK-3 inhibition on CTGF gene expression in glaucomatous TM cells.
FIG. 4. Effect of CDK2 inhibition on CTGF gene expression in glaucomatous TM cells. To determine the effects of CDK inhibition on CTGF gene expression, we measured the effects of the known CDK2 inhibitor GW-8510 (Davis, et al. 2001) on both basal and TGFβ2-stimulated CTGF mRNA expression in a glaucomatous TM cell line (SGTM2697) using QPCR analysis.
The inventors have tested several different compound classes in a CTGF QPCR assay for inhibition of basal and TGFβ2-induced CTGF gene expression in cultured human normal or glaucomatous TM cells. Small molecule inhibitors were targeted at the inhibition of GSK-3, CDK, NAALADase, Protein Kinase C, MEK, p38MAPK, ROCK, VEGF, geranylgeranyl transferase and AGE. Small molecule agonists of PPAR, 5-HT, and P2X7 were also tested for activity. Compounds which target extracellular signal-regulated kinase 1 or 2 (ERK1 or ERK2) may also play a role in basal or TGFβ2-induced CTGF gene expression.
Total RNA was isolated from TM cells using Trizol® reagent according to the manufacturer's instructions (Life Technologies). First strand cDNA was generated from 1 ug of total RNA using random hexamers and TaqMan® Reverse Transcription reagents according to the manufacturer's instructions (PE Biosystems, Foster City, Calif.). The 100 ul reaction was subsequently diluted 20-fold to achieve an effective cDNA concentration of 0.5 ng/ul.
Differential expression of CTGF was verified by quantitative real-time RT-PCR (QPCR) using an ABI Prism® 7700 Sequence Detection System (Applied Biosystems). essentially as described (Shepard et al., IOVS 2001, 42:3173). Primers for CTGF amplification were designed using Primer Express software (Applied Biosystems) and anneal to adjacent exons of Genbank accession # NM_001901.1 ([…], nts 1667-1689 and […], nts 1723-1742) and generate a 76-bp amplicon. Amplification of CTGF was normalized to 18S ribosomal RNA expression using primers designed to the 18S rRNA gene (GenBank accession #X03205 […], nts 1680-1700 and […], nts 1730-1749) which generates a 69-bp amplicon. The SYBR® Green I double-stranded DNA binding dye chemistry (Applied Biosystems) was used to amplify CTGF or 18S cDNA. Specificity of the CTGF and 18S primer pairs was assessed from the PCR product by a combination of DNA sequencing, agarose gel analysis and dissociation curve analysis using the ABI Prism 770 SDS Dissociation Curve software (Applied Biosystems). CTGF or 18S rRNA reactions consisted of 1×SYBR Green PCR Master Mix (Applied Biosystems), 50 nM primer concentrations and 2.5 ng cDNA in a final volume of 50 ul. Thermal cycling conditions consisted of 50° C., 2 min, 95° C. 10 min followed by 40 cycles at 95° C., 15 sec, 60° C., 1 min. Quantification of relative RNA concentrations was done using the relative standard curve method as described in PE Biosystems User Bulletin #2 (http://docs.appliedbiosystems.com/pebiodocs/04303859.pdf). Data analysis was performed with SDS software version 1.9.1 (Applied Biosystems) and MS Excel 97 (Microsoft). Plasmid DNA containing target sequence for CTGF or 18S was used for generating the standard curve. QPCR data are presented as mean±SD.

CDK4 = CDK4 (Homo sapiens, UniProt P11802); conditions: cited from earlier work
CDK1 = CDK1 (Homo sapiens, UniProt P06493); conditions: cited from earlier work
CDK1, sequence (P06493 whole entry, species assumed): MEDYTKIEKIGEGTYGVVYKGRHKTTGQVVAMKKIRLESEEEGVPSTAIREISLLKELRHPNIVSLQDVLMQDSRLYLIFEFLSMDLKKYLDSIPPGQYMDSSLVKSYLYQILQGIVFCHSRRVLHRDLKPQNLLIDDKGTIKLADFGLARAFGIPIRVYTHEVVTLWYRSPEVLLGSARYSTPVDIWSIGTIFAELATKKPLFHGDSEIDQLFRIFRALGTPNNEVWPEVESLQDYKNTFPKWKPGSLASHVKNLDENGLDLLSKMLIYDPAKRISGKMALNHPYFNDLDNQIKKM
CDK1, sequence (P14635 whole entry partner, species assumed): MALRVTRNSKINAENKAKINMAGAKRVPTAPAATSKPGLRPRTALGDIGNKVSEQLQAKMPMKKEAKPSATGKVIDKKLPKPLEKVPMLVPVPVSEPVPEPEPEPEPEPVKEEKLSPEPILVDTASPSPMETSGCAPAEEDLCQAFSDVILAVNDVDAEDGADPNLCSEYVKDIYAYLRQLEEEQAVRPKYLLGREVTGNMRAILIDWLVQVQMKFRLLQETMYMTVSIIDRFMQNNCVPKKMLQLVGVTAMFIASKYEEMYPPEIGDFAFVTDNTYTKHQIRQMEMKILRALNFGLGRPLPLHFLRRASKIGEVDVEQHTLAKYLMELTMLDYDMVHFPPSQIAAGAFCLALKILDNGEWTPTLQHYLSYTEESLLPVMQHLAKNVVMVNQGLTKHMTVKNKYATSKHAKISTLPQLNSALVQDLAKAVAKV

CDK4, sequence (P11802 whole entry, species assumed): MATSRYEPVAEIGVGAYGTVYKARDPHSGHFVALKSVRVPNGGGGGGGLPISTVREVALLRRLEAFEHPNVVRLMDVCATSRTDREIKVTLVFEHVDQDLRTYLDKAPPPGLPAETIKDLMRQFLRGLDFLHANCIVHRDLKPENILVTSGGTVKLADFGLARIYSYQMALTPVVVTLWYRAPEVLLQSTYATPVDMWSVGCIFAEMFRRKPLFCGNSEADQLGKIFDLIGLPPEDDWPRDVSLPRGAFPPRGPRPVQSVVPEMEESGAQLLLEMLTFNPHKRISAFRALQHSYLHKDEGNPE
CDK4, sequence (P24385 whole entry partner, species assumed): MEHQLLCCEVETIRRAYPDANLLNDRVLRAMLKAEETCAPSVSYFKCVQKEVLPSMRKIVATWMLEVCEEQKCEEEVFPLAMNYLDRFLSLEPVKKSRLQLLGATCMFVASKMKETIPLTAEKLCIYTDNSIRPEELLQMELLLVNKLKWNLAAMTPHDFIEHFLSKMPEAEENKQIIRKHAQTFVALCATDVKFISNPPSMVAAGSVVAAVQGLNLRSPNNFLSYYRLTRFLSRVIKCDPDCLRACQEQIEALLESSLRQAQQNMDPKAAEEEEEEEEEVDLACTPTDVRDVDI

Compound | inhibition of basal CTGF gene expression (mRNA levels) (CTGF gene expression) | other results
CCCCC[C@H](O)/C=C/C=C\C/C=C\C/C=C\CCCC(=O)O [15(S)HETE] | inhibit basal | –
O=C1Nc2ccc3ncsc3c2/C1=C/Nc1ccc(S(=O)(=O)Nc2ccccn2)cc1 [GW-8510] | inhibit | IC50 (CDK4): 130 nM; inhibition of TGFβ2-induced CTGF gene expression (mRNA levels) (CTGF gene expression): inhibit; IC50 (CDK1): 110 nM
CC(C)[C@H](CO)Nc1nc(Nc2cccc(Cl)c2)c2ncn(C(C)C)c2n1 [purvalanol A] | – | inhibitory activity on CTGF expression (CTGF gene expression): inhibitory activity
N#Cc1ccc2[nH]c3c(c2c1)CC(=O)Nc1ccccc1-3 [9-cyanopaullone] | inhibit basal | –
CC[C@H](CO)Nc1nc(NCc2ccccc2)c2ncn(C(C)C)c2n1 [roscovitine] | – | inhibitory activity on CTGF expression (CTGF gene expression): inhibitory activity
O=C1Cc2c([nH]c3ccc([N+](=O)[O-])cc23)-c2ccccc2N1 [alsterpaullone] | inhibit basal | –
Cn1cc(C2=C(c3ccc(Cl)cc3Cl)C(=O)NC2=O)c2ccccc21 [SB-216763] | inhibit | inhibition of TGFβ2-induced CTGF gene expression (mRNA levels) (CTGF gene expression): inhibit
O=C1Cc2c([nH]c3ccc(Br)cc23)-c2ccccc2N1 [kenpaullone] | inhibit basal | –
